Measured values taken from patent publication EP0013742A1, “Substituted sulfonic acid anilides, their preparation and use” (BASF Aktiengesellschaft, priority 1979, dated 1980).

Tests used:
Rasen = assay: Effect on grass/lawn, vegetation test in Mitscherlich pots (Beispiel B); type: in vivo; conditions: for 1. Schnitt Pflanzenhöhe relativ / 1. Schnitt Pflanzenhöhe cm: 20 days after treatment; for 1. Schnitt Pflanzenhöhe relativ / 2. Schnitt Pflanzenhöhe relativ: untreated control = 100; for 2. Schnitt Pflanzenhöhe cm: regrowth over 4 weeks after 1st cut (after-effect); for 2. Schnitt Pflanzenhöhe relativ: regrowth over 4 weeks after 1st cut; for 1. Schnitt Pflanzenhöhe cm: sprayed at 4 cm height
Description: In einem Vegetationsversuch in Mitscherlichgefäßen wurde auf einem lehmigen Sandboden Rasen der folgenden Standard--Mischung angesät: Agrostis tenuis 10 %, Cynosurus cristatus 10 %, Festuca rubra 15 %, Lolium perenne 35 % und Poa pratensis 30 %. Die Düngung wurde mit 1,5 g N als Ammonnitrat und 1 ^g P205 als sec. Kaliumphosphat vorgenommen. Nach 2 vorangegangenen Schnitten wurden die Wirkstoffe in verschiedenen Aufwandmengen bei einer Wuchshöhe von 4 cm in üblicher Weise gespritzt. 20 Tage nach der Behandlung wurde die Wuchshöhe bestimmt; nach erfolgtem 1. Schnitt wurde der Wiederaufwuchs über 4 Wochen bis hin zum 2. Schnitt beobachtet und ebenfalls Längenmessungen durchgeführt, um die Nachwirkung zu überprüfen. Gegenüber der Kontrolle reagierten die Pflanzen aus den Behandlungsreihen mit sehr starken Kürzungen. Die Nachwirkung ist besser zu beurteilen als bei der zum Vergleich herangezogenen bekannten Substanz, wie nachstehende Tabelle zeigt.

Sommerweizen (Kolibri) = assay: Growth height reduction in cereals, greenhouse, foliar spray (Beispiel A); type: in vivo, Weizen (Kolibri); conditions: 18 days growth; for Pflanzenhöhe cm: sprayed at 10 cm plant height, 100 plants measured; for Pflanzenhöhe relativ: untreated control = 100
Description: (§1) Im Gewächshaus wurden die Getreidearten Weizen (Kolibri) und Gerste (Union) in Kunststoffschalen von 11,5 cm Durch- messer in Torfkultursubstrat, welches ausreichend mit Nährstoffen versorgt war, eingesät. Die Wirkstoffe wurden in unterschiedlichen Aufwandmengen über das Blatt zugeführt. Die Applikation erfolgte bei einer Wuchshöhe der Pflanzen von 10 cm in üblicher Weise durch Spritzen.
(§2) Während der Wachstumszeit von 18 Tagen zeigten die behandelten Pflanzen gegenüber der unbehandelten Kontrolle ein deutlich geringeres Längenwachstum, was durch die abschließenden Längenmessungen bestätigt werden konnte. Hierbei wurden von jeder Behandlungsreihe 100 Pflanzen gemessen.

Sommergerste (Union) = assay: as above; type: in vivo, Gerste (Union); conditions: for Pflanzenhöhe cm: sprayed at 10 cm plant height, 18 days growth; for Pflanzenhöhe relativ: untreated control = 100
Description: as §1, §2

SMILES	1. Schnitt Pflanzenhöhe relativ (Rasen; Aufwandmenge 0,5 kg/ha)	2. Schnitt Pflanzenhöhe cm (Rasen; Aufwandmenge 0,5 kg/ha)	2. Schnitt Pflanzenhöhe relativ (Rasen; Aufwandmenge 0,5 kg/ha)	1. Schnitt Pflanzenhöhe cm (Rasen; Aufwandmenge 0,5 kg/ha)	1. Schnitt Pflanzenhöhe relativ (Rasen; Aufwandmenge 0,75 kg/ha)	2. Schnitt Pflanzenhöhe cm (Rasen; Aufwandmenge 0,75 kg/ha)	2. Schnitt Pflanzenhöhe relativ (Rasen; Aufwandmenge 0,75 kg/ha)	1. Schnitt Pflanzenhöhe cm (Rasen; Aufwandmenge 0,75 kg/ha)	Pflanzenhöhe cm (Sommerweizen (Kolibri); Aufwandmenge 1,5 kg/ha)	Pflanzenhöhe relativ (Sommerweizen (Kolibri); Aufwandmenge 1,5 kg/ha)	Pflanzenhöhe cm (Sommerweizen (Kolibri); Aufwandmenge 6,0 kg/ha)	Pflanzenhöhe relativ (Sommerweizen (Kolibri); Aufwandmenge 6,0 kg/ha)	Pflanzenhöhe cm (Sommergerste (Union); Aufwandmenge 0,25 kg/ha)	Pflanzenhöhe relativ (Sommergerste (Union); Aufwandmenge 0,25 kg/ha)	Pflanzenhöhe cm (Sommergerste (Union); Aufwandmenge 0,75 kg/ha)	Pflanzenhöhe relativ (Sommergerste (Union); Aufwandmenge 0,75 kg/ha)	Pflanzenhöhe cm (Sommergerste (Union); Aufwandmenge 1,50 kg/ha)	Pflanzenhöhe relativ (Sommergerste (Union); Aufwandmenge 1,50 kg/ha)	Pflanzenhöhe cm (Sommergerste (Union); Aufwandmenge 3,00 kg/ha)	Pflanzenhöhe relativ (Sommergerste (Union); Aufwandmenge 3,00 kg/ha)
CC(=O)Nc1cc(N(C#N)S(=O)(=O)C(F)(F)F)c(C)cc1C [Beispiel 1, 5-Acetamido-N -cyano-2,4-dimethyl-trifluormethansulfonsäureanilid]	38,5	8,0 cm	72,7	5,5 cm	31,5	7,0 cm	63,6	4,5 cm	13,0 cm	48,5	12,6 cm	46,6	–	–	–	–	–	–	–	–
CC(=O)Nc1ccc(C)c(N(C#N)S(=O)(=O)C(F)(F)F)c1 [Beispiel 67]	97,4	11,0 cm	100	14,0 cm	87,4	9,0 cm	81,8	12,5 cm	13,5 cm	50,4	12,0 cm	44,8	–	–	–	–	–	–	–	–
CC(=O)Nc1ccc(C)c(NS(=O)(=O)C(F)(F)F)c1 [Fluoridamid, 5-Acetam.ido-2-methyl-trifluormethansulfonsäureanilid, reference compound]	94,4	11,0 cm	100	13,5 cm	87,4	10,0 cm	90,9	12,5 cm	17,0 cm	63,4	15,0 cm	56,0	–	–	–	–	–	–	–	–
CC(=O)Nc1cc(NS(=O)(=O)C(F)(F)F)c(C)cc1C [Mefluidide, 5-Acetamido-2,4--dimethyl-trifluormethansulfonsäureanilid]	–	–	–	–	–	–	–	–	–	–	–	–	27,0 cm	96,4	18,0 cm	64,3	17,5 cm	62,5	16,0 cm	57,1
